Source: the supplement of paper PMC10307832

Tests used:
Test in all cases: relative viability (nuclei count vs DMSO), 5 days (fraction); higher = more cells survive
[1] = compound: CC(C)N(CCCNC(=O)Nc1ccc(C(C)(C)C)cc1)C[C@H]1O[C@@H](n2ccc3c(N)ncnc32)[C@H](O)[C@@H]1O + C[C@]1(O)C[C@@H](c2nc(-c3ccc4ccc(-c5ccccc5)nc4c3)c3c(N)nccn32)C1 [Linsitinib] (partner 1 µM)
Outline: (§1)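 Dosing by pin tool came one day after lung cancer cell lines were seeded in 1536-well plates, using either one drug or a fixed anchor-drug dose plus five library-drug doses (not always all listed) in √10 steps. After 5 days, nuclei were counted on 4× images. Relative viability is treated-well nuclei count divided by vehicle-well nuclei count, and values are medians of duplicate plates.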

Shikonin + Luminespib = compound: CC(C)=CC[C@@H](O)C1=CC(=O)c2c(O)ccc(O)c2C1=O [Shikonin] + CCNC(=O)c1noc(-c2cc(C(C)C)c(O)cc2O)c1-c1ccc(CN2CCOCC2)cc1 [Luminespib] (partner 0.01 µM)
Outline: as §1

[2] = compound: CC(C)N(CCCNC(=O)Nc1ccc(C(C)(C)C)cc1)C[C@H]1O[C@@H](n2ccc3c(N)ncnc32)[C@H](O)[C@@H]1O + Nc1ncn([C@H]2C[C@H](O)[C@@H](CO)O2)c(=O)n1 [Decitabine] (partner 2 µM)
Outline: as §1

Shikonin + Olaparib = compound: CC(C)=CC[C@@H](O)C1=CC(=O)c2c(O)ccc(O)c2C1=O [Shikonin] + O=C(c1cc(Cc2n[nH]c(=O)c3ccccc23)ccc1F)N1CCN(C(=O)C2CC2)CC1 [Olaparib] (partner 8 µM)
Outline: as §1

Cell Line	relative viability ([1]; first compound 0.08 µM)	relative viability ([1]; first compound 0.253 µM)	relative viability ([1]; first compound 0.8 µM)	relative viability ([1]; first compound 2.53 µM)	relative viability ([1]; first compound 8 µM)	relative viability (Shikonin + Luminespib; first compound 0.01 µM)	relative viability (Shikonin + Luminespib; first compound 0.1 µM)	relative viability (Shikonin + Luminespib; first compound 0.3162 µM)	relative viability (Shikonin + Luminespib; first compound 1 µM)	relative viability ([2]; first compound 0.08 µM)	relative viability ([2]; first compound 0.253 µM)	relative viability ([2]; first compound 0.8 µM)	relative viability ([2]; first compound 2.53 µM)	relative viability ([2]; first compound 8 µM)	relative viability (Shikonin + Olaparib; first compound 0.01 µM)	relative viability (Shikonin + Olaparib; first compound 0.1 µM)	relative viability (Shikonin + Olaparib; first compound 0.3162 µM)	relative viability (Shikonin + Olaparib; first compound 1 µM)
LXF-289	0.994	1.03	0.951	1.01	0.928	0.721	0.625	0.604	0.814	0.329	0.39	0.396	0.378	0.336	1.11	0.966	1.11	1.06
NCI-H23	0.57	–	0.556	0.577	0.592	0.226	0.196	0.227	0.143	0.311	–	0.327	0.298	0.331	0.36	0.248	0.317	0.313
NCI-H322M	0.863	0.81	0.877	0.861	0.894	0.942	0.855	0.82	0.847	0.698	0.695	0.723	0.689	0.641	0.806	0.757	0.671	0.88
NCI-H522	–	–	–	–	–	1.09	0.917	1.29	1.31	0.64	0.737	0.71	0.729	0.696	0.645	0.614	0.597	0.491
NCI-H1299	0.876	1.02	0.97	0.918	0.942	–	–	–	–	–	–	–	–	–	0.969	0.986	0.976	0.832
NCI-H1563	1.16	1.14	1.32	1.27	1.18	0.575	0.465	0.542	0.453	–	–	–	–	–	–	–	–	–
NCI-H1623	–	–	–	–	–	0.513	0.552	0.609	0.368	–	–	–	–	–	–	–	–	–
NCI-H1648	–	–	–	–	–	–	–	–	–	0.494	0.464	0.446	0.398	0.548	0.846	–	1.08	0.816
NCI-H1650	–	–	–	–	–	0.195	0.198	0.175	0.193	0.368	0.482	0.262	0.432	0.357	0.877	0.787	0.732	0.718
NCI-H1703	0.67	0.515	–	0.721	0.612	–	–	–	–	–	–	–	–	–	0.42	0.47	0.395	0.241
NCI-H2170	–	–	–	–	–	0.8	0.703	0.632	0.562	0.477	0.418	0.42	0.438	0.471	0.623	0.594	0.588	0.576
NCI-H2228	0.817	–	0.665	0.625	0.554	0.153	0.177	0.146	0.163	–	–	–	–	–	0.987	0.808	0.681	0.272
NCI-H2342	–	–	–	–	–	0.763	0.65	0.752	0.702	0.667	0.649	0.655	0.815	0.713	0.43	0.392	0.38	0.383
SW 900	–	–	–	–	–	0.192	0.173	0.207	0.155	0.387	0.43	–	0.42	0.404	1.05	0.776	0.917	0.717
